Source: patent US10918108B2, “Synergistic herbicidal composition” (JIANGSU ROTAM CHEMISTRY CO., LTD, priority 2016, dated 2021)

Test system: gramineous weeds, broadleaf weeds and sedge weeds
Assay: Weed control efficacy, greenhouse pot test, survival rate compared with Colby value (Table 1)
Assay type: in vivo
From the text: The desired efficacy of the combination of three active compounds can be calculated through “Colby formula” as follows (S. R. Colby, “Calculating Synergistic and Antagonistic Responses of Herbicide Combinations, Weeds 1967, 15, 20-22): if
A is the activity of active compound A when used in an amount of mg/ha or concentrate of mppm, expressed as a percentage of untreated control;
B is the activity of active compound B when used in an amount of ng/ha or concentrate of nppm, expressed as a percentage of untreated control;
C is the activity of active compound C when used in an amount of hg/ha or concentrate of hppm, expressed as a percentage of untreated control;
E0 is the anticipated activity of active compounds A, B and C when used in an amount of m, n, h g/ha or concentrate of m, n, h ppm, E0=A×B×C/(100^(N-1)) N=3;
If the observed actual activity E is greater than the anticipated activity (E0), then the composition has synergistic effect.
If the observed actual efficiency of weed control (E) through the biology test is greater than the anticipated value (E0) as calculated via Colby's equation, then it represents that the efficacy of herbicidal composition is greater than the sum of efficacy of each component, which means the composition has synergistic effect.
Use stem and leaf treatment for potted grown plant(NY/T 1155.4-2006): fill a plastic pot (6 cm height, 9 cm diameter) with a quantity of soil and sow 15 to 20 seeds of monocotyledonous weeds and dicotyledonous weeds in the plastic pot, cover it with 0.5 to 1 cm thick of fine soil and then put it in greenhouse for cultivation. When weeds grow to the 2 to 4 leave stage, conduct the stem and leaf spray treatment with 1 mL herbicidal solution on each pot and repeat four times for each treatment and leave some pots untreated as control group. Keep the treated pots in a greenhouse for cultivation and observe the growing status of target weeds periodically. Conduct the visual test on the target weeds regarding the damage symptoms and growth inhibition effect after 21 days. Weigh up the fresh weight above the ground or plant fresh weight and evaluate the toxicity of the herbicidal formulation on target weeds based on the fresh weight inhibition rate of the target.
Prepare the following formulations according to specific weight percentages: 1. Pyroxasulfone; 2. Mesotrione; 3 Atrazine; 4. Pyroxasulfone+Mesotrione; 5. Pyroxasulfone+Atrazine; 6. Mesotrione+Atrazine; 7. Pyroxasulfone+Mesotrione+Atrazine. After that, dilute above formulations with water to obtain diluted formulations.
Conduct visual assessment the damage symptom and growth inhibition status of target weeds after 21 days. Weigh up the fresh weight above the ground and calculate the inhibition rate of fresh weight (%).
Anticipated effects of the special combined three active components can be calculated through so called “Colby formula”. If the actual efficiency of weed control observed during the biology test exceeds the anticipated value […] calculated by Colby's formula, then it represents that the efficacy of herbicidal composition is greater than the sum of efficacy of each component, which means the composition has synergistic effect.
The synergistic herbicidal composition of present invention has conducted test on the following important harmful plants (gramineous weeds, broadleaf weeds, sedge weeds) with wide herbicidal spectrum: Echinochloa oryzicola, Digitaria spp., Stellaria media, Amaranthus retroflexus, Fallopia(ex Polygonum) Convolvulus, Abuthilon theophrasti, Sagittariatrifolia, Oriental Waterplantain Rhizome, Herb of Pygmy Arrowhead, Monochoria korsakowii, Lindernia procumbens, Solanum nigrum L., Scirpus juncoides Roxb, Cyperus difformis L., Chenopodium alum L., Avena fatua L. and Galium aparine L. var. tenerum Gren. et (Godr.) Rebb.

Compound	Actual survival rate (%) (application rate 1 g/ha)	Actual survival rate (%) (application rate 25 g/ha)	Actual survival rate (%) (application rate 50 g/ha)	Actual survival rate (%) (application rate 100 g/ha)	Actual survival rate (%) (application rate 5 g/ha)	Actual survival rate (%) (application rate 10 g/ha)
CS(=O)(=O)c1ccc(C(=O)C2C(=O)CCCC2=O)c([N+](=O)[O-])c1 [Mesotrione, 2-(4-mesyl-2-nitrobenzoyl)cyclohexane-1,3-dione]	100	87	74			
CCNc1nc(Cl)nc(NC(C)C)n1 [Atrazine, 2-chloro-4-ethylamino-6-isopropylamino-1,3,5-triazine]	100		100	67		
Cn1nc(C(F)(F)F)c(CS(=O)(=O)C2=NOC(C)(C)C2)c1OC(F)F [Pyroxasulfone, 3-[5-(difluoromethoxy)-1-methyl-3-(trifluoromethyl)pyrazol-4-ylmethylsulfonyl]-4,5-dihydro-5,5-dimethyl-1,2-oxazole]	89				78	60
